# Reference: ChEMBL document CHEMBL5338735, “Designing Smaller, Synthetic, Functional Mimetics of Sulfated Glycosaminoglycans as Allosteric Modulators of Coagulation Factors” (J Med Chem, 2023)
# Legend:
# Coagulation factor XI [1] = target: T1, Coagulation factor XI (Homo sapiens, UniProt P03951); test: Inhibition of human Factor XIa assessed as substrate hydrolysis measured by measuring residual activity after 10 mins by chromogenic substrate hydrolysis assay relative to control
# Coagulation factor XI [2] = target: T1, Coagulation factor XI; test: Inhibition of human factor XIa
# Coagulation factor XI [3] = target: T1, Coagulation factor XI; test: Inhibition of human recombinant FXIa assessed as S-2366 hydrolysis
# Prothrombin [4] = target: T2, Prothrombin (Homo sapiens, UniProt P00734); test: Inhibition of thrombin in human plasma measured after 10 mins by chromogenic substrate hydrolysis assay; format: cell-free
# Prothrombin [5] = target: T2, Prothrombin; test: Inhibition of thrombin in human plasma assessed as maximal efficacy measured after 10 mins by chromogenic substrate hydrolysis assay relative to control; format: cell-free
# [6] = target: Coagulation factor X (Homo sapiens) (UniProt P00742); test: Inhibition of human factor Xa assessed as fold change relative to basal value
# Sequence of Coagulation factor X (Homo sapiens) (P00742 41-179 limits assumed): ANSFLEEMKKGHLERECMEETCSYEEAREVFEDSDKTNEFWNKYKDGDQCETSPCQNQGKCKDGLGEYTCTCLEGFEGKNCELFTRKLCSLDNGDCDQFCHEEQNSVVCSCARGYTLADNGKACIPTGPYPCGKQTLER
# Sequence of Coagulation factor X (Homo sapiens) (P00742 235-488 limits assumed): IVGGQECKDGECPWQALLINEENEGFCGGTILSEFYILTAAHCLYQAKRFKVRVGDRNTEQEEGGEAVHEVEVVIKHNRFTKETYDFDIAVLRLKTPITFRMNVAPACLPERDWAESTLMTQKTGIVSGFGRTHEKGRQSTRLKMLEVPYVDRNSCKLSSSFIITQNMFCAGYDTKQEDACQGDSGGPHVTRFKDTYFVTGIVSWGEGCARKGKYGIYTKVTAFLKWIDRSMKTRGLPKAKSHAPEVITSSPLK
# T1 sequence (P03951 19-387 limits assumed): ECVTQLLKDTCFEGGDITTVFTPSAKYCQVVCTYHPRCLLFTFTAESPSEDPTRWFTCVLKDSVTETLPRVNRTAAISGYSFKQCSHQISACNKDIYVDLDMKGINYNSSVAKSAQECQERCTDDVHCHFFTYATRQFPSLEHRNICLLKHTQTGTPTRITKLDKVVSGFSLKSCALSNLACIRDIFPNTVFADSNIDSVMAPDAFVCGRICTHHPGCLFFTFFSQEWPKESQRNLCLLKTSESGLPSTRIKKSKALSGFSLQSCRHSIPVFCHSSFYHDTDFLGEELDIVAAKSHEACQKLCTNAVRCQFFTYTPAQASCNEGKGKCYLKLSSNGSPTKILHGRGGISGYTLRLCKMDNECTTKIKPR
# T1 sequence (P03951 388-625 limits assumed): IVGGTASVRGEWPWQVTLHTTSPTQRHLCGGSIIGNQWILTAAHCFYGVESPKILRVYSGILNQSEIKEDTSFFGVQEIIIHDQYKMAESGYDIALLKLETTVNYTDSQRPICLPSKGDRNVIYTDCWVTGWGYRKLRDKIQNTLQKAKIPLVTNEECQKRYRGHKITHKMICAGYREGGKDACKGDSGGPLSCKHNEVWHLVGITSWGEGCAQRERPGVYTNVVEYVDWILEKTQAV
compound,measurement,setting,value
Cc1ccc(C(=O)Nc2ccc(CP(=O)(O)O)cc2CP(=O)(O)O)cc1NC(=O)c1cccc(NC(=O)Nc2cccc(C(=O)Nc3cc(C(=O)Nc4ccc(CP(=O)(O)O)cc4CP(=O)(O)O)ccc3C)c2)c1,Activity,Coagulation factor XI [1],68%
COc1cc2oc(C)c(C(=O)OC(C)(C)C)c2cc1OCc1oc2cc(OC)c(OS(=O)(=O)O)cc2c1C(=O)OC(C)(C)C,IC50,Coagulation factor XI [2],7.3 µM
COc1cc(CCCS(=O)(=O)O)ccc1O[C@H](Cc1cccc(OC)c1O)CS(=O)(=O)O,IC50,Coagulation factor XI [2],0.15 µM
O=C(O[C@@H]1[C@H](OC(=O)c2cc(OS(=O)(=O)O)cc(OS(=O)(=O)O)c2)[C@@H](OC(=O)c2cc(OS(=O)(=O)O)cc(OS(=O)(=O)O)c2)[C@H](OC(=O)c2ccc(OS(=O)(=O)O)cc2OS(=O)(=O)O)[C@@H](OC(=O)c2cc(OS(=O)(=O)O)cc(OS(=O)(=O)O)c2)[C@H]1OC(=O)c1cc(OS(=O)(=O)O)cc(OS(=O)(=O)O)c1)c1cc(OS(=O)(=O)O)cc(OS(=O)(=O)O)c1,IC50,Coagulation factor XI [3],0.28 µM
O=c1oc2cc(OCCCCn3cc(COc4ccc(-c5oc(=O)c6c(Cl)cc(Cl)cc6c5-c5ccccc5)cc4)nn3)ccc2c(-c2ccccc2)c1-c1ccc(OS(=O)(=O)O)cc1,IC50,Prothrombin [4],0.18 µM
same,Efficacy,Prothrombin [5],47%
O=C(Nc1ccc(C(=O)Nc2ccc(C(=O)Nc3ccc(S(=O)(=O)O)c4cc(S(=O)(=O)O)cc(S(=O)(=O)O)c34)cc2)cc1)Nc1ccc(C(=O)Nc2ccc(C(=O)Nc3ccc(S(=O)(=O)O)c4cc(S(=O)(=O)O)cc(S(=O)(=O)O)c34)cc2)cc1,Activity,Coagulation factor XI [1],> 90%
O=S(=O)(O)Oc1cc2c(c(OS(=O)(=O)O)c1)C[C@H](OS(=O)(=O)O)[C@@H](c1ccc(OS(=O)(=O)O)c(OS(=O)(=O)O)c1)O2,fold change (FC),[6],20.8
O=S(=O)(O)Oc1cc2c(c(OS(=O)(=O)O)c1)C[C@@H](OS(=O)(=O)O)[C@@H](c1ccc(OS(=O)(=O)O)c(OS(=O)(=O)O)c1)O2,fold change (FC),[6],10.8
COc1cc2oc(C)c(C(=O)O)c2cc1OS(=O)(=O)O,IC50,Coagulation factor XI [2],> 2 µM
